Reference: ChEMBL document CHEMBL1141921, “Phthalazinones. Part 1: The design and synthesis of a novel series of potent inhibitors of poly(ADP-ribose)polymerase” (Bioorg Med Chem Lett, 2005)

Assays:
[1] = molecular target: Poly [ADP-ribose] polymerase 1 (Homo sapiens, UniProt P09874); assay: Inhibitory concentration against human poly (ADP-ribose) polymerase 1 (PARP-1)
HeLa = assay: Potentiation factor (ratio of the IC50 growth curve for the alkylating agent, methyl methanesulfonate (MMS) divided by the IC50 of the curve of MMS + PARP inhibitor) against human HeLa B cells at a concentration of 200 nM; assay type: functional
[2] = In vitro metabolic stability was measured in human liver microsomes; assay type: ADME, Microsome
[3] = In vitro metabolic stability was measured in mouse liver microsomes; assay type: ADME, Microsome

Poly [ADP-ribose] polymerase 1, sequence (P09874 whole entry): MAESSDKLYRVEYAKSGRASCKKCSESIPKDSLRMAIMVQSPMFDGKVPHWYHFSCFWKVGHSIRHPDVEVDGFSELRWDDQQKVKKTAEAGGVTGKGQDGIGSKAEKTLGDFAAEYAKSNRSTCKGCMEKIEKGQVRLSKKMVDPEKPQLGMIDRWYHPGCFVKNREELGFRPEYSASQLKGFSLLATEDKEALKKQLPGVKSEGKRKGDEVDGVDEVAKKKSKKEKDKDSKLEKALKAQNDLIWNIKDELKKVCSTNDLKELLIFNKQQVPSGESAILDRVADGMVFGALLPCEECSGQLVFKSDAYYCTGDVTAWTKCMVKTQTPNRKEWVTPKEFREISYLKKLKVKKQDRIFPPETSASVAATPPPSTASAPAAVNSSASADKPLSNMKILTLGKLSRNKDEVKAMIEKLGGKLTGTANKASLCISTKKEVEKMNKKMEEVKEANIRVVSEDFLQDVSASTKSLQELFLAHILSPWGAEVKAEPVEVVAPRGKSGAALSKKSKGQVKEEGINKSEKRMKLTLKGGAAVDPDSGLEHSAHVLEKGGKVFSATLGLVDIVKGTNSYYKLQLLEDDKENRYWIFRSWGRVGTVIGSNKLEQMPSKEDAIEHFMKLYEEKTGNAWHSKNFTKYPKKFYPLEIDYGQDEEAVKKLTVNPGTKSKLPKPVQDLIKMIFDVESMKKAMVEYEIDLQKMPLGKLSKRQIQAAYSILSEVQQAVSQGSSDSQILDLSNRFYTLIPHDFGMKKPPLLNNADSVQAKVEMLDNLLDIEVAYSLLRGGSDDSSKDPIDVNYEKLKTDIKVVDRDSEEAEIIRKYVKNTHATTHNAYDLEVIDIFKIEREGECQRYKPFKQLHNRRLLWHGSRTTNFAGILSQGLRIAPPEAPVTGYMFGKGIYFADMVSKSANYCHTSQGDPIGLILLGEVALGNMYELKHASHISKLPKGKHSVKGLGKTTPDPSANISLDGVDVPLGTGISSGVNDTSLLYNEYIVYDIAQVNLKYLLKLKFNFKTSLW

Compound | IC50 [1] [nM] | PF50 (HeLa) | other results
CC(C)C(=O)Nc1cccc(Cc2nnc(O)c3ccccc23)c1 | 370 |  | 
O=C(Nc1cccc(Cc2nnc(O)c3ccccc23)c1)c1ccc(-n2cccn2)nc1 | 47 |  | 
Cc1noc(-c2cccc(Cc3nnc(O)c4ccccc34)c2)n1 | 189 |  | 
O=C1CCC(=O)N1c1cccc(Cc2n[nH]c(=O)c3ccccc23)c1 |  | 1.74 | Cli [2]: < 0.05 ml min-1 g-1 liver
O=C(Nc1cccc(Cc2nnc(O)c3ccccc23)c1)C(F)(F)F | 13 |  | Cli [3]: > 50 ml min-1 g-1 liver
O=C1CCC(=O)N1c1cc(Cc2n[nH]c(=O)c3ccccc23)ccc1Cl |  | 1.5 | 
CN1CC(=O)N(c2cc(Cc3nnc(O)c4ccccc34)ccc2F)C(=O)C1 |  | 3.1 | 
O=C1CC(c2ccccc2)C(=O)N1c1cc(Cc2n[nH]c(=O)c3ccccc23)ccc1F (configuration not stated) |  | 5.4 | 
O=C(Nc1cccc(Cc2n[nH]c(=O)c3ccccc23)c1)C1CC1 | 55 |  | 
O=C1CCCN1c1cccc(Cc2n[nH]c(=O)c3ccccc23)c1 |  |  | Cli [3]: 4.9 ml min-1 g-1 liver
CCCNC(=O)Nc1cccc(Cc2n[nH]c(=O)c3ccccc23)c1 | 540 |  | 
CC1(C)CC(=O)N(c2cc(Cc3nnc(O)c4ccccc34)ccc2F)C1=O |  | 2.9 | 
O=C1C=CC(=O)N1c1cccc(Cc2nnc(O)c3ccccc23)c1 |  | 0.94 | 
O=C1CCCC(=O)N1c1cc(Cc2n[nH]c(=O)c3ccccc23)ccc1F |  | 3.6 | 
O=C1c2ccccc2C(=O)N1c1cccc(Cc2n[nH]c(=O)c3ccccc23)c1 | 180 |  | 
CC1CC(=O)N(c2cc(Cc3n[nH]c(=O)c4ccccc34)ccc2F)C1=O (configuration not stated) |  | 18.2 | 
COc1ccc(Cc2n[nH]c(=O)c3ccccc23)cc1N1C(=O)CCC1=O | 33 | 1.5 | 
Cc1nc(-c2ccccc2)sc1C(=O)Nc1cccc(Cc2n[nH]c(=O)c3ccccc23)c1 | 27 |  | 
O=C1C2CC2C(=O)N1c1cc(Cc2nnc(O)c3ccccc23)ccc1F (configuration not stated) | 5 | 14.4 | 
O=c1[nH]nc(Cc2ccccc2)c2ccccc12 | 770 |  | 

Further lines, with some results ahead:

IC50 [1] [nM] | Compound | PF50 (HeLa) | other results
116 | CCOC(=O)Nc1cccc(Cc2nnc(O)c3ccccc23)c1 |  | 
290 | CCS(=O)(=O)Nc1cccc(Cc2n[nH]c(=O)c3ccccc23)c1 |  | 
5 | O=C1CCC(=O)N1c1cc(Cc2n[nH]c(=O)c3ccccc23)ccc1F | 5.62 | Cli [3]: < 1 ml min-1 g-1 liver
36 | CC(=O)Oc1cccc(Cc2n[nH]c(=O)c3ccccc23)c1 |  | 
20 | CCC(=O)Nc1cccc(Cc2n[nH]c(=O)c3ccccc23)c1 |  | Cli [3]: 12 ml min-1 g-1 liver
56 | O=C(Nc1cccc(Cc2n[nH]c(=O)c3ccccc23)c1)c1ccc(-c2ccsc2)s1 |  | 
50 | CCNC(=O)c1cccc(Cc2n[nH]c(=O)c3ccccc23)c1 |  | Cli [3]: < 1 ml min-1 g-1 liver
10 | COc1ccc(-n2cc(C(=O)Nc3cccc(Cc4n[nH]c(=O)c5ccccc45)c3)c(C)n2)cc1 |  | 
90 | CCCC(=O)Nc1cccc(Cc2n[nH]c(=O)c3ccccc23)c1 |  | 
